The subject of assay [1] is MART-127-35 epitope specific human primary CTL. Nature of the assay: AICD induction and quantitation in epitope specific primary CTL (tetramer/annexin V FACS). It counts as cell-based. The conditions noted are these: pre-incubation about 45 min; restimulation with MART-127-35 peptide pulsed T2 cells; kinase inhibitors 25 μM, z-VAD-fmk 100 μM, Fc chimeras 10 μg/ml. On the procedure: FIG. 10. Effect of external death receptor blockade and MAP kinase inhibitors on AICD in the epitope specific CTLs upon secondary encounter of the cognate epitope. The CTLs were pre-incubated at optimal concentration for about 45 min. at about 37° C. with pan caspase inhibitor z-VAD-fmk (100 μM); human Fas/Fc chimera, human TNF-RI/Fc chimera, human TRAIL-RI/Fc chimera, human TRAIL-RII/Fc chimera and human IFN-γ RI/Fc chimeric proteins (10 μg/ml); p38 kinase inhibitor SB203580, JNK inhibitor anthra[1,9-cd]pyrazol-6(2H)-one (SP600125), […] inhibitor PD98059 (25 μM). Then the pretreated as well as untreated CTLs were incubated with T2 cells either alone or loaded with peptide. About 4 hours after secondary exposure cells were stained for determining: (A) Number of tetramer^+ cells out of the CD8^+ T cells [Top panel]; number of tetramer^+/Annexin V^+ and tetramer^+/Annexin^− populations [Bottom panel]. […] (B) Effect of the MAP kinase inhibitors on IFN-γ response by the effector cells.
AICD induction and quantitation. AICD in the human primary CTL primed and expanded specifically for melanoma epitope MART-127-35 was induced by re-exposure of the CTLs to MART-127-35 peptide (1 μg/ml) as reported previously. Staurosporine mediated death was induced by exposure of CTL to 1 μM staurosporine for 4 hr. Quantitation of AICD and the effects of various inhibitors on AICD of CTLs, were carried out by annexin-V staining followed by FACS analyses as reported previously.
In test whether or not the epitope specific primary CTLs undergo AICD, the activated CTLs were exposed to peptide [1 μg/ml] loaded T2 cells (Effector: Target=100) at different time points of the cultures. Thereafter, the evidence of apoptosis was determined by flow cytometry with triple color staining (CD8, MART-127-35/HLA-A2 tetramer and annexin V) at different time points (4-18 h). Experiments were carried out in triplicate wells and significance was calculated by One-way analysis of variance (ANOVA) using Sigma Stat statistical software, Chicago, Ill.
To evaluate the effect of various agents in modulating AICD, the CTLs were pre-incubated with various compounds at optimal concentration for 45 min. at 37° C. and then exposed to T2 cells alone or loaded with peptide.

The test system of another assay is helper T cells. Nature of the assay: AICD in helper T cells. It counts as cell-based. An excerpt: Thus, JNK inhibitors, when administered alone or in combination with other therapeutics, have utility for the treatment of diseases, including AIDS, for which the death of helper T cells is a factor in the etiology, mechanism or progression of that disease.
The test system of assay [2] is Bcl family proteins in CTL. In words: Western blot of Bcl family pro- and anti-apoptotic proteins in CTL after secondary stimulation. It counts as cell-based, human. On the procedure: FIG. 12. Effect of antigen specific secondary stimulation on mitochondrial transmembrane membrane potential (Δψm), pro- and anti-apoptotic protein and expression of cell surface molecules. (A) Differential effect on membrane polarization in Mart-1 primary CTLs (top panel) vs. Jurkat T cells (bottom panel). CTLs were incubated with T2 cells either alone or loaded with peptide. After overnight secondary exposure cells were stained with Mart-1 tetramer/CD8 and DiOC6. Histogram represents the fluorescence of DiOC6 in the gated antigen specific tetramer^+ population (top panel). Jurkat T cells were also analyzed for modulation of membrane potential after TCR-driven stimulation (bottom panel). Values represent the mean±SD of fluorescence intensity triplicates from one out of three separate experiment. *p<0.001 (One Way ANOVA). […] (C) Expression of different cell surface receptors for survival or death signal in antigen specific population upon secondary stimulation. Values on left upper corner represent the geometric mean of the fluorescence intensity for that particular marker when stimulated with T2/MAGE-3271-279 while that on right upper corner represent the geometric mean of the fluorescence intensity when stimulated with T2/MART-127-35.
Washed cell pellets were lysed in RIPA buffer and a cytosolic fraction was prepared by spinning the lysate at 15,000 rpm. Proteins (20 μg/well) were separated on 15% SDS-PAGE, transferred onto nitrocellulose filters, probed with appropriate antibodies. Antibodies for Bcl-2, phospho Bcl-2, Bim, BCI-XL, Bax, Actin were purchased from Santa-Cruz Biotechnology, Santa-Cruz, Calif. Anti-Mcl-1 antibody was purchased from BD Pharmingen, Palo Alto, Calif. Blots were developed by HRP-tagged secondary antibody (Santa-Cruz Biotechnology, Santa-Cruz, Calif.) using a chemoluminescence kit (Amersham Biosciences, Buckinghamshire, U. K.).
A general note: In western blotting, separated proteins are transferred to a membrane and probed.

These results are taken from patent US20070003531A1, “Methods for improving immunotherapy by enhancing survival of antigen-specific cytotoxic T lymphocytes” (University of Connecticut, priority 2005, published 2007).

Entries after “also recorded” stand apart in the source; their conditions may differ.

For the molecule `O=C1c2ccccc2-c2n[nH]c3cccc1c23` [SP600125, anthra[1,9-cd]pyrazol-6(2H)-one], in assay [1], the “protection/rescue of CTL from AICD” value is recorded as “protected; also recorded: rescued a significant fraction; also recorded: capable of protecting; also recorded: blocked”. The “AICD in helper T cells” value with helper T cells was “inhibit/prevent”. In assay [2], the BCI-XL expression entry was “non-selectively up regulated”, the Bcl-2 expression entry was “non-selectively up regulated”, the Mcl-1 level result is recorded as “selectively up regulated; also recorded: increased” and the “phosphorylated Bcl-2 level” value is “selectively up regulated; also recorded: increased”.
